This note sets out measurements from patent US9284335B2, “Substituted pyrido[3,2-e][1,2,4]triazolo[1,5-c]pyrimidines, pyrido[2,3-e][1,2,4]triazolo[1,5-c]pyrimidines and/or [1,2,4]triazolo[1,5-c]pteridines for treatment of central nervous system diseases and disorders” (DART NEUROSCIENCE (CAYMAN) LTD., priority 2012, dated 2016).

This experiment has as its system NS1 cells. Briefly: Neurite outgrowth (NOG) assay. It is filed as cell-based. The method, then: Neuroscreen 1 (NS1) Cells (Cellomics Inc.) were cultured on collagen type I coated 75 cm2 plastic flasks (Biocoat, Becton Dickinson) in a humidified incubator at 37° C. in 5% CO2. Cells were cultured in RPMI complete cell culture medium (Cambrex) supplemented with 10% heat-inactivated horse serum (Invitrogen), 5% heat-inactivated fetal bovine serum (Cellgro), and 2 mM L-glutamine (Cambrex). For expansion, the cells were trypsinized and split at 80% confluence. Cell culture media was changed every 2 to 3 days.
NS1 cells were harvested and counted using a Coulter counter (Becton Dickinson Coulter Z1). Cells were seeded in 96-well collagen I coated plates at a density of 2000 cells per well in volume of 200 μl. RPMI media was supplemented with 200 ng/ml nerve growth factor (NGF, Sigma). NS1 cells were incubated for 72 hours to allow differentiation to a neuronal phenotype. […]
Antibody-stained 96-well plates were stored at 4° C. in the dark until scanning. […] The neurite outgrowth assay is based on two channels to scanning: (1) Channel 1, which detects the Hoechst Dye and is used by the software to identify cells and for automated focusing; and (2) Channel 2, which detects the FITC fluorescence of the secondary antibody and is used by the software to calculate all data generated in reference to neurites. […]

For `COc1ccc(C2CNC(=O)C2)cc1OC1CCCC1` (centres unmarked) [Rolipram], the “neurite length and branching / neurite outgrowth” value is “enhanced in dose-dependent manner” (in combination with forskolin) and “not affected” (without forskolin).
